Read-outs that look alike come from different tables or passages of the source.
Columns and labels:
Type in all cases: in vivo
[1] = system: sedge, umbrella (small-flower umbrella sedge, Cyperus difformis); test: Test B flooded paddy test; settings: Cyperus difformis, 360 h; 250 g ai/ha, Flood; visual rating on scale of 0 to 100 where 0 is no effect and 100 is complete control; 13 to 15 d after treatment; read-out: Plant response rating, Sedge, Umbrella
Procedure, shortened: (§1)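 Ratings use a 0-100 visual scale, where 100 is complete control, and compare treated plants with controls after 13 to 15 d of greenhouse growth. Compound went straight into paddy water kept 3 cm over the soil surface, applied to seedlings at the 2-leaf stage.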

[2] = system: barnyardgrass (Echinochloa crus-galli); test: Test B flooded paddy test; settings: Echinochloa crus-galli, 360 h; 250 g ai/ha, Flood; visual rating on scale of 0 to 100 where 0 is no effect and 100 is complete control; 13 to 15 d after treatment; read-out: Plant response rating, Barnyardgrass
Procedure, shortened: as §1

[3] = system: ducksalad (Heteranthera limosa); test: Test B flooded paddy test; settings: Heteranthera limosa, 360 h; 250 g ai/ha, Flood; visual rating on scale of 0 to 100 where 0 is no effect and 100 is complete control; 13 to 15 d after treatment; read-out: Plant response rating, Ducksalad
Procedure, shortened: as §1

rice (Oryza sativa) = test: Test B flooded paddy test; settings: Oryza sativa, 360 h; 250 g ai/ha, Flood; visual rating on scale of 0 to 100 where 0 is no effect and 100 is complete control; 13 to 15 d after treatment; read-out: Plant response rating, Rice
Procedure, shortened: as §1

[4] = system: wheat (Triticum aestivum); test: Test A greenhouse herbicide test, pre- and postemergence; settings: for plant injury at 125 g/ha / plant injury at 500 g/ha: Triticum aestivum, 240 h; for plant injury at 500 g/ha / Wheat plant response rating: 0 to 100 scale
Procedure, shortened: (§2)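 Visual injury ratings, 0 (no effect) to 100 (complete control), versus untreated plants after roughly 10 d in a greenhouse. Compounds, formulated in a surfactant-containing non-phytotoxic solvent, were sprayed on loam–sand soil after sowing (pre) or on one- to two-leaf plants 2–10 cm tall (post).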

[5] = system: chickweed (common chickweed, Stellaria media); test: Test C greenhouse herbicide test, postemergence
Procedure, shortened: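 Plants grown in potting mix of peat moss, vermiculite, wetting agent and starter nutrients were sprayed postemergence at 2 to 18 cm height (1- to 4-leaf stage). After 13 to 15 d in the greenhouse, injury was visually rated against untreated controls on a 0–100 scale (0 no effect, 100 complete control).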

kochia (Kochia scoparia) = test: Test A greenhouse herbicide test, pre- and postemergence
Procedure, shortened: as §2

[6] = system: ryegrass, Italian (Italian ryegrass, Lolium multiflorum); test: as above
Procedure, shortened: as §2

[7] = Postemergence, 31 g ai/ha, 0 to 100 scale (0 no effect, 100 complete control)
[8] = Postemergence, 125 g ai/ha, scale 0 to 100, 0 is no effect, 100 is complete control
[9] = Postemergence, 250 g ai/ha, scale 0 to 100, 0 no effect, 100 complete control, 13 to 15 d
[10] = postemergence, 62 g ai/ha, scale 0 to 100, 0 no effect, 100 complete control
[11] = Postemergence, 500 g ai/ha, 0 to 100 scale, 0 is no effect, 100 is complete control
[12] = Preemergence, 125 g ai/ha, 0 to 100 scale where 0 is no effect and 100 is complete control
[13] = Preemergence, 500 g ai/ha, 0 to 100 scale, 0 no effect, 100 complete control
[14] = Postemergence, 125 g ai/ha, 0 to 100 scale where 0 is no effect and 100 is complete control
[15] = Postemergence, 500 g ai/ha, 0 is no effect, 100 is complete control
[16] = Preemergence, 500 g ai/ha, 0 to 100 scale where 0 is no effect and 100 is complete control
[17] = Postemergence, 31 g ai/ha, scale 0 to 100 (0 no effect, 100 complete control)
[18] = Postemergence, 500 g ai/ha, visual rating after approx. 10 d, 0 to 100 scale (0 no effect, 100 complete control)

Row | Structure (SMILES) | Chickweed plant response rating [5, 7] | Plant response rating, Chickweed [5, 8] | Plant response rating, Chickweed [5, 9] | Chickweed plant response rating [5, 10] | Kochia plant response rating (kochia (Kochia scoparia); [11]) | Kochia plant response rating (kochia (Kochia scoparia); [12]) | Plant response rating, Kochia (kochia (Kochia scoparia); [13]) | Plant response rating, Wheat [4, 14] | Wheat plant response rating [4, 15] | Plant response rating, Ryegrass, Italian [6, 14] | Ryegrass, Italian plant response rating [6, 11] | Ryegrass, Italian plant response rating [6, 12] | Plant response rating, Ryegrass, Italian [6, 13] | Plant response rating, Kochia (kochia (Kochia scoparia); [14]) | Plant response rating, Kochia (kochia (Kochia scoparia); [16]) | Plant response rating, Ryegrass, Italian [6, 16] | Plant response rating, Chickweed [5, 17] | Plant response rating, Kochia (kochia (Kochia scoparia); [18]) | Plant response rating, Wheat [4, 18] | Plant response rating, Ryegrass, Italian [6, 18] | other results
1 | Cc1nn(C)c(=O)c(-c2c(C)oc3c(C)cccc23)c1O [Compound 9, 4-(2,7-dimethyl-3-benzofuranyl)-5-hydroxy-2,6-dimethyl-3(2H)-pyridazinone] | – | – | – | – | – | – | – | – | – | – | – | – | – | – | – | – | – | – | – | – | pest or weed control at 250 g/ha [1]: 0%; pest or weed control at 250 g/ha [2]: 0%; pest or weed control at 250 g/ha [3]: 0%; plant injury at 250 g/ha (rice (Oryza sativa)): 0%; plant injury at 125 g/ha ([4]; post-emergence, Postemergence, 125 g ai/ha, visual rating after approx. 10 d, 0 to 100 scale (0 no effect, 100 complete control), read-out: Plant response rating, Wheat): 0%; plant injury at 500 g/ha ([4]; post-emergence, Postemergence, 500 g ai/ha, 0 is no effect, 100 is complete control, read-out: Wheat plant response rating): 0%; plant injury at 125 g/ha ([4]; pre-emergence, Preemergence, 125 g ai/ha, 0 to 100 scale where 0 is no effect and 100 is complete control, read-out: Wheat plant response rating): 0%; plant injury at 500 g/ha ([4]; pre-emergence, Preemergence, 500 g ai/ha, 0 no effect, 100 complete control, read-out: Plant response rating, Wheat): 0%
2 | CCOC(=O)Oc1c(C)nn(C)c(=O)c1-c1c(CC)ccc2ccccc12 [Compound 37] | 90 | 90 | 95 | 90 | 90 | 30 | 80 | 40 | 80 | 90 | 100 | 90 | 100 | – | – | – | – | – | – | – | Plant response rating, Kochia (kochia (Kochia scoparia); Postemergence, 125 g ai/ha, visual rating after approx. 10 d, 0 to 100 scale (0 no effect, 100 complete control)): 60
3 | COc1ccc2ccccc2c1-c1c(O)c(C)nn(C)c1=O [Compound 40] | 55 | 90 | – | 60 | 90 | 50 | 80 | 0 | 50 | 90 | 90 | 60 | 100 | 80 | – | – | – | – | – | – | Plant response rating, Chickweed ([5]; Postemergence, 16 g ai/ha, scale 0 to 100 (0 no effect, 100 complete control)): 50
4 | Cc1ccc(-c2c(O)c(Br)nn(C)c2=O)c2ccccc12 [Compound 52] | 95 | 98 | 100 | 90 | 100 | 0 | 80 | 0 | 0 | 70 | 80 | 80 | 80 | 40 | – | – | – | – | – | – | –
5 | CC(=O)Oc1c(C)nn(C)c(=O)c1-c1ccc(F)c2ccccc12 [Compound 90] | 90 | 95 | 98 | 90 | 100 | 70 | – | 20 | 30 | 100 | 100 | 100 | – | 100 | 100 | 100 | – | – | – | – | –
6 | Cc1nn(C)c(=O)c(-c2c(C)sc3ccc(Cl)cc23)c1O [Compound 104] | – | 100 | 100 | 98 | – | 100 | – | 20 | – | 100 | – | 100 | – | 90 | 100 | 100 | 90 | 100 | 20 | 100 | –
7 | CCCC(=O)Oc1c(C)nn(C)c(=O)c1-c1c(C)sc2c(C)cc(C)cc12 [Compound 106] | – | 95 | 98 | 98 | – | 20 | – | 0 | – | 90 | – | 100 | – | 70 | 90 | 100 | 95 | 90 | 20 | 100 | –
8 | CCC(=O)Oc1c(C)nn(C)c(=O)c1-c1c(C)sc2ccc(Cl)cc12 [Compound 109] | – | 95 | 100 | 95 | – | 100 | – | 20 | – | 100 | – | 100 | – | 90 | 100 | 100 | 80 | 90 | 30 | 100 | –
9 | CC(=O)Oc1c(Br)nn(C)c(=O)c1-c1c(C)ccc2ccccc12 [Compound 129] | – | – | 100 | – | – | 70 | – | 20 | – | 100 | – | 100 | – | 70 | 90 | 100 | 98 | 90 | 80 | 100 | Chickweed plant response rating ([5]; Postemergence, 62 g ai/ha, 0 to 100 scale (0 no effect, 100 complete control)): 98; Chickweed plant response rating ([5]; postemergence, 125 g ai/ha, scale 0 to 100, 0 no effect, 100 complete control): 100
